Results as given in US12365651B2, “Use of pirfenidone and derivatives for modulation of B lymphocyte activity and organ protection from acute tissue damage” (Washington University, priority 2017, dated 2025).
Read-outs that look alike come from different tables or passages of the source.

Test: Plasma pharmacokinetics after IV or PO administration
Type: in vivo, SD Rat
Conditions: Sprague-Dawley, SD Rat
Description: Pirfenidone and Pegyonde-6 were administered at equimolar concentrations to rats IV or per os (PO) and serum concentrations measured at different time points to measure pharmacokinetic parameters. The drugs were solubilized in 5% Alcohol+20% PEG 300 in saline.

[1] = rat, plasma, iv, 40 mg/kg, IV 40 mg/kg, individual rats 1-3, read-out: Plasma concentrations of Pirfenidone
[2] = rat, plasma, iv, 40 mg/kg, IV 40 mg/kg, read-out: Plasma concentrations of Pirfenidone, Mean
[3] = rat, plasma, po, 40 mg/kg, PO 40 mg/kg, individual rats 7-9, read-out: Plasma concentrations of Pirfenidone
[4] = rat, plasma, po, 40 mg/kg, PO 40 mg/kg, read-out: Plasma concentrations of Pirfenidone, Mean

Cc1ccc(=O)n(-c2ccccc2)c1 [Pirfenidone, 5 methyl-1-phenyl-2-[H] pyridone]
concentration at 0.083 h (rat, plasma, iv, 40 mg/kg, IV 40 mg/kg, 0.083 h, read-out: Plasma concentrations of Pirfenidone, Mean): 33700 ng/mL | concentration at 0.25 h [1]: 21400 ng/mL | concentration at 0.25 h [2]: 25400 ng/mL | concentration at 0.5 h [1]: 15800 ng/mL | concentration at 0.5 h [2]: 17200 ng/mL | concentration at 1 h [2]: 6940 ng/mL | concentration at 2 h [2]: 444 ng/mL | concentration at 4 h [1]: 4.27 ng/mL | concentration at 4 h [2]: 4.7 ng/mL | concentration at 8 h [1]: 1.22 ng/mL | concentration at 8 h [2]: 1.22 ng/mL | AUC0-t (rat, plasma, iv, 40 mg/kg, IV 40 mg/kg, read-out: AUC0-t, Mean): 23500 ng·h/mL | AUC(0-inf) (rat, plasma, iv, 40 mg/kg, IV 40 mg/kg, read-out: AUC0-∞, Mean): 23500 ng·h/mL | Cmax (rat, plasma, iv, 40 mg/kg, IV 40 mg/kg, read-out: Cmax, Mean): 33700 ng/mL | MRT inf (rat, plasma, iv, 40 mg/kg, IV 40 mg/kg, read-out: MRTINF, Mean): 29 min | half-life (rat, plasma, iv, 40 mg/kg, IV 40 mg/kg, read-out: T1/2, Mean (converted)): 21.4 min | concentration at 0.25 h [3]: 9130 ng/mL | concentration at 0.25 h [4]: 9000 ng/mL | concentration at 0.5 h [3]: 8450 ng/mL | concentration at 0.5 h [4]: 7990 ng/mL | concentration at 1 h [3]: 5110 ng/mL | concentration at 1 h [4]: 4070 ng/mL | concentration at 2 h [3]: 1190 ng/mL | concentration at 2 h [4]: 1780 ng/mL | concentration at 4 h [4]: 321 ng/mL | concentration at 8 h [4]: 65.3 ng/mL | Cmax (rat, plasma, po, 40 mg/kg, PO 40 mg/kg, individual rats 7-9, read-out: Cmax): 9130 ng/mL | MRT inf (rat, plasma, po, 40 mg/kg, PO 40 mg/kg, individual rats 7-9, read-out: MRTINF): 52 min | AUC0-t (rat, serum, iv, 40 mg/kg, IV 40 mg/kg, individual rats 1-3, read-out: AUC0-t): 21400 ng·h/mL | AUC(0-inf) (rat, serum, iv, 40 mg/kg, IV 40 mg/kg, individual rats 1-3, read-out: AUC0-∞): 21400 ng·h/mL | Cmax (rat, serum, iv, 40 mg/kg, IV 40 mg/kg, individual rats 1-3, read-out: Cmax): 32900 ng/mL | MRT inf (rat, serum, iv, 40 mg/kg, IV 40 mg/kg, individual rats 1-3, read-out: MRTINF): 28.8 min | half-life (rat, serum, iv, 40 mg/kg, IV 40 mg/kg, individual rats 1-3, read-out: T1/2 (converted)): 30 min | AUC0-t (rat, serum, po, 40 mg/kg, PO 40 mg/kg, individual rats 7-9, read-out: AUC0-t): 11100 ng·h/mL | AUC(0-inf) (rat, serum, po, 40 mg/kg, PO 40 mg/kg, individual rats 7-9, read-out: AUC0-∞): 11100 ng·h/mL | AUC0-t (rat, serum, po, 40 mg/kg, PO 40 mg/kg, read-out: AUC0-t, Mean): 12000 ng·h/mL | AUC(0-inf) (rat, serum, po, 40 mg/kg, PO 40 mg/kg, read-out: AUC0-∞, Mean): 12100 ng·h/mL | Cmax (rat, serum, po, 40 mg/kg, PO 40 mg/kg, read-out: Cmax, Mean): 9000 ng/mL | MRT inf (rat, serum, po, 40 mg/kg, PO 40 mg/kg, read-out: MRTINF, Mean): 76.8 min | half-life (rat, serum, po, 40 mg/kg, PO 40 mg/kg, read-out: T1/2, Mean (converted)): 48.9 min | Tmax (serum, IV 40 mg/kg, individual rats 1-3, read-out: Tmax): 4.98 min | bioavailability (serum, PO 40 mg/kg vs IV 40 mg/kg): 22.6% | Tmax (serum, PO 40 mg/kg, read-out: Tmax, Mean): 15 min
